According to patent publication US6649797B2, “Compounds and methods of use to treat infectious diseases” (The Picower Institute for Medical Research, priority 1996, dated 2003):

Key:
recombinant MA = biological target: T1, recombinant MA (Human immunodeficiency virus type 1 group M subtype B, UniProt P04591); experiment: Binding of [14C]-CNI-H0294 to recombinant MA in solution (immunoprecipitation); set-up: species or system HIV-1
T1 construct: 0.28 nanomoles of recombinant MA or RT [p66/p51 ] dimer
Method: Twenty nmol of [^14C]-CNI-HO294 were mixed with 0.28 nmol of recombinant MA or RT (a p51/p66 heterodimer) in 40 μl of binding buffer. Samples were incubated for 2 h at 37° C. in the presence or absence of 200 nmol of unlabeled CNI-H0294. MA and RT proteins were immunoprecipitated using protein G agarose and sheep polyclonal anti-MA (αMA) or rabbit anti-RT (αRT) sera, respectively. Pre-immune sera (PI) was used as control. Bound material was eluted from protein G using 0.1 M glycine buffer [pH 2.8] and the radioactivity in the eluate was quantified in a scintillation counter.
0.28 nanomoles of recombinant MA or RT [p66/p51 ] dimer were mixed with 20 nmol of [^14C] CNI-HO294 (specific activity 5×10^4 cpm/nmol) and incubated 2 hr at room temperature in 40 μl of binding buffer (PBS supplemented with 1% BSA, 0.1% Tween 20, 1 μg/ml leupeptin, 1 μg/ml aprotinin, 1 mM PMSF). Sheep anti-MA or rabbit anti-RT sera (both obtained from NIH AIDS Research and Reference Reagent Program) or pre-immune control sera were then added (at 1:100 dilution) and incubation continued for another 1 hr at room temperature. Immune complexes were precipitated with protein G-agarose, washed, and then eluted with 0.1 M glycine, pH 2.8. Radioactivity of the eluate was measured in a scintillation counter.

[1] = biological target: T2, pseudovirion-derived nucleoprotein complexes / karyopherin α (Human immunodeficiency virus type 1 group M subtype B, UniProt P04591); experiment: Binding of pseudovirion-derived nucleoprotein complexes to GST-karyopherin α; format: biochemical, HIV-1; conditions: various concentrations
T2 construct: composed exclusively of Gag (MA, CA, NC, p6) and Env (gp41 and gp120) proteins; endogenous in cells; host or cells: cytoplasmic lysate of H9 cells inoculated with HIV-like gag-env pseudovirions (Haffar et al. 1990)
Method: Cytoplasmic lysates of H9 cells infected with HIV-1RF (upper panel) or HIV-like pseudovirions (bottom panel) were treated for 2 hours with various concentrations of CNI-H0294, and were then mixed with GST-karyopherin α immobilized on glutathione Sepharose beads. HIV-1 DNA or RNA that co-precipitated with karyopherin α was quantified as in A and B.
H9 cells were infected with HIV-1 or HIV-like pseudovirions (Haffar, et al., 1990, J. Virol., 64:2653-2659) at a multiplicity adjusted according to p24 content (50 ng p24 per 10^6 cells) The MA NLS^− virus contains substitutions of isoleucine residues for lysines in positions 26 and 27 of MA in an NLHX backbone (Westervelt., et al., 1992, J. Virol. 66:2577-2582), thus inactivating the NLS. The Vpr^− virus has the initiating ATG of the vpr gene changed to GTG, thus abolishing expression of this gene. The ΔMA NLS pseudovirions have leucine substituting for lysine in position 28 of MA. This mutation abrogates nuclear translocation of HIV-1 gag RNA in growth-arrested H9 cells infected with pseudovirions. […]
Cytoplasmic extracts prepared from HIV-1-or pseudovirion-infected H9 cells were adjusted to 0.14 M NaCl, 0.1% Tween 20 and precleared with glutathione-Sepharose beads for 30 min. at room temperature. Karyopherin α was expressed as a fusion protein with glutathione S-transferase (GST) which can bind glutathione beads in solution. […]

[2] = biological target: T3, MA associated with the HIV-1 pre-integration complex (Human immunodeficiency virus type 1 group M subtype B, UniProt P05890+P05959); experiment: Reaction of [14C]CNI-H0294 with MA in HIV-1 pre-integration complexes after borohydride reduction; format: binding; conditions: 10 μM [14C]-CNI-H0294, borohydride reduction, HIV-1-infected cell extracts
T3 construct: MA is made from the Gag precursor and RT is made from the Gag-Pol precursor; endogenous in cells; host or cells: cytoplasmic extract of H9 cells infected with HIV-1RF
Method: Cytoplasmic extracts from HIV-1RF-infected H9 cells were treated with [^14C]CNI-H0294 (10 μM). After borohydride reduction the extracts were immunoprecipitated with anti-MA (αMA), anti-IN (αIN), or pre-immune serum (PI). […] Immunoprecipitated radioactivity was quantified in a scintillation counter.
Cytoplasmic lysates prepared from HIV-1-infected cells were treated with 10 μM of [^14C]-labeled CNI-H0294 (specific activity 5×10^4 cpm/nmol) in 1 ml extraction buffer adjusted to 0.14 M NaCl. Sodium borohydride was then added to a final concentration 10 mM and samples were incubated 1 hr at room temperature prior to immunoprecipitation to reduce double bonds of Schiff bases to an irreversible secondary amine. Immunoprecipitation was performed as described above, but beads were stringently washed three times with PBS supplemented with 0.1% SDS, 1% sodium deoxycholate, 1 μg/ml each of aprotinin and leupeptin, and 1 mM PMSF.
To discriminate between these two possibilities, cytoplasmic extracts of HIV-1-infected cells were treated with [^14C]-CNI-H0294 and then with sodium borohydride, to reduce the reversible Schiff bases hypothesized to form between the compound and the lysines of MA NLS and convert the attached drug molecules to irreversible adducts. […] Without borohydride treatment, no radioactivity was immunoprecipitated with MA.

`CC(=O)c1cc(Nc2cc(C)[n+](C)c(N)n2)cc(C(C)=O)c1` [CNI-0294, 2-Amino-4-(3,5-diacetylphenyl)amino-1,6-dimethylpyrimidinium chloride] was tested, and the “binding to recombinant MA” value (recombinant MA) was “No binding was observed”, the “inhibition of binding of karyopherin α to pseudovirion-derived nucleoprotein complexes” value [1] was “did not inhibit” and the “radioactivity immunoprecipitated by anti-MA serum” value [2] was “a significant amount of radioactivity was immunoprecipitated by anti-MA serum”.
